According to patent US11213032B2, “Insecticidal compounds” (SYNGENTA PARTICIPATIONS AG, priority 2017, dated 2022):

Assays:
Format in all cases: in vivo
[1] = tested on: Thrips tabaci (Onion thrips); assay: Thrips tabaci (onion thrips) feeding/contact activity; conditions: 144 h, mixed ages, 6 days after infestation
Procedure: Thrips tabaci (Onion thrips) Feeding/Contact Activity
(§1) Sunflower leaf discs were placed on agar in 24-well microtiter plates and sprayed with aqueous test solutions prepared from 10,000 ppm DMSO stock solutions. After drying the leaf discs were infested with a thrips population of mixed ages. The samples were assessed for mortality 6 days after infestation.

[2] = tested on: Euschistus heros (Neotropical Brown Stink Bug); assay: Euschistus heros (neotropical brown stink bug) on soybean leaves, spray; conditions: 120 h, N2 nymphs, 5 days after infestation, read-out: effect in at least one of the two categories (mortality or growth inhibition)
Procedure: Euschistus heros (Neotropical Brown Stink Bug)
Soybean leaves on agar in 24-well microtiter plates were sprayed with aqueous test solutions prepared from 10,000 ppm DMSO stock solutions. After drying the leaves were infested with N2 nymphs. The samples were assessed for mortality and growth inhibition in comparison to untreated samples 5 days after infestation.

[3] = tested on: Tetranychus urticae (Two-Spotted Spider Mite); assay: whole plant or invertebrate; conditions: 192 h
Procedure: Tetranychus urticae (Two-Spotted Spider Mite): Feeding/Contact Activity
as §1, with “Bean” for “Sunflower”, “discs” for “discs were placed”, “were” for “and”, “mite” for “thrips”, “on mixed population (mobile stages) 8” for “6”

[4] = tested on: Plutella xylostella (Diamond Back Moth); assay: Plutella xylostella (diamond back moth) feeding/contact activity; conditions: 120 h, L2 larvae, artificial diet, 5 days after infestation
Procedure: Plutella xylostella (Diamond Back Moth): Feeding/Contact Activity
24-well microtiter plates with artificial diet were treated with aqueous test solutions prepared from 10,000 ppm DMSO stock solutions by pipetting. After drying, the plates were infested with L2 larvae (10 to 15 per well). The samples were assessed for mortality 5 days after infestation.

[5] = tested on: Myzus persicae (Green Peach Aphid); assay: Myzus persicae (green peach aphid) feeding/contact activity; conditions: 144 h, mixed ages, 6 days after infestation
Procedure: Myzus persicae (Green Peach Aphid): Feeding/Contact Activity
Sunflower leaf discs were placed onto agar in a 24-well microtiter plate and sprayed with aqueous test solutions prepared from 10,000 ppm DMSO stock solutions. After drying, the leaf discs were infested with an aphid population of mixed ages. The samples were assessed for mortality 6 days after infestation.

[6] = tested on: Spodoptera littoralis (Egyptian Cotton Leaf Worm); assay: Spodoptera littoralis (Egyptian cotton leaf worm) on cotton leaf discs; conditions: foliar, 72 h, L1 larvae, 3 days after infestation
Procedure: Spodoptera littoralis (Egyptian Cotton Leaf Worm)
Cotton leaf discs were placed onto agar in 24-well microtiter plates and sprayed with aqueous test solutions prepared from 10,000 ppm DMSO stock solutions. After drying the leaf discs were infested with five L1 larvae. The samples were assessed for mortality, anti-feeding effect, and growth inhibition in comparison to untreated samples 3 days after infestation. Control of Spodoptera littoralis by a test sample is given when at least one of the categories mortality, anti-feedant effect, and growth inhibition is higher than the untreated sample.

[7] = tested on: Diabrotica balteata (Corn Root Worm); assay: Diabrotica balteata (corn root worm) on maize sprouts, spray; conditions: 96 h, L2 larvae, 4 days after infestation, read-out: effect in at least one of the two categories (mortality or growth inhibition)
Procedure: Diabrotica balteata (Corn Root Worm)
Maize sprouts placed onto an agar layer in 24-well microtiter plates were treated with aqueous test solutions prepared from 10,000 ppm DMSO stock solutions by spraying. After drying, the plates were infested with L2 larvae (6 to 10 per well). The samples were assessed for mortality and growth inhibition in comparison to untreated samples 4 days after infestation.

CCOC1=NOC(NC(=O)c2ccc(C3=NS[C@](c4cc(Cl)cc(Cl)c4)(C(F)(F)F)C3)cc2C)C1 (stereo partly drawn) [Compound A01, 4-[(5R)-5-(3,5-dichlorophenyl)-5-(trifluoromethyl)-4H-isothiazol-3-yl]-N-(3-ethoxy-4,5-dihydroisoxazol-5-yl)-2-methyl-benzamide]
≥ 80%: mortality at 200 ppm [1] | percent effect (mortality or growth inhibition) at 200 ppm [2] | mortality at 200 ppm [3] | mortality at 200 ppm [4] | mortality at 200 ppm [5] | percent control (mortality, anti-feedant effect or growth inhibition) at 200 ppm [6] | percent effect (mortality or growth inhibition) at 200 ppm [7]

CCOC1=NOC(NC(=O)c2ccc(N3CCC(c4cc(Cl)cc(Cl)c4)(C(F)(F)F)C3)cc2C)C1 (stereo not shown) [Compound A02, 4-[3-(3,5-dichlorophenyl)-3-(trifluoromethyl)pyrrolidin-1-yl]-N-(3-ethoxy-4,5-dihydroisoxazol-5-yl)-2-methyl-benzamide]
≥ 80%: mortality at 200 ppm [1] | percent effect (mortality or growth inhibition) at 200 ppm [2] | mortality at 200 ppm [3] | mortality at 200 ppm [4] | percent control (mortality, anti-feedant effect or growth inhibition) at 200 ppm [6] | percent effect (mortality or growth inhibition) at 200 ppm [7]
